According to the kinase profiling compilation of Christmann-Franck et al. (2016):
Several values for one entry are separate records, joined by “and”; a condition that tells them apart may be missing. Identical values can stand only once.

Assays:
Assay in all cases: radiometric filter-binding kinase assay, Kinase HotSpot
Settings in all cases: compound 0.5 µM; ATP 10 µM
[1] = target: TYK2 JH1 catalytic (human) (UniProt P29597)
RPS6KB1 (human) = RPS6KB1 (human) (UniProt P23443)
ZAP70 (human) = ZAP70 (human) (UniProt P43403)
PRKCA (human) = PRKCA (human) (UniProt P17252)
NEK1 (human) = NEK1 (human) (UniProt Q96PY6)
NTRK1 (human) = NTRK1 (human) (UniProt P04629)
MAPKAPK5 (human) = MAPKAPK5 (human) (UniProt Q8IW41)
SRPK3 (human) = SRPK3 (human) (UniProt Q9UPE1)
OXSR1 (human) = OXSR1 (human) (UniProt O95747)
STK38 (human) = STK38 (human) (UniProt Q15208)
PAK4 (human) = PAK4 (human) (UniProt O96013)
IKBKB (human) = IKBKB (human) (UniProt O14920)
CAMKK1 (human) = CAMKK1 (human) (UniProt Q8N5S9)
CAMK4 (human) = CAMK4 (human) (UniProt Q16566)
PTK6 (human) = PTK6 (human) (UniProt Q13882)
RPS6KA3 KD1 KD2 (human) = RPS6KA3 KD1 KD2 (human) (UniProt P51812)
ULK3 (human) = ULK3 (human) (UniProt Q6PHR2)
BRSK2 (human) = BRSK2 (human) (UniProt Q8IWQ3)
MAP3K14 (human) = MAP3K14 (human) (UniProt Q99558)
CDK1 CCNA2 (human) = CDK1 CCNA2 (human) (UniProt P06493+P20248)
LYN (human) = LYN (human) (UniProt P07948)
PAK2 (human) = PAK2 (human) (UniProt Q13177)
SYK (human) = SYK (human) (UniProt P43405)
JAK3 JH1 JH2 (human) = JAK3 JH1 JH2 (human) (UniProt P52333)
TXK (human) = TXK (human) (UniProt P42681)
DCLK2 (human) = DCLK2 (human) (UniProt Q8N568)
PRKCH (human) = PRKCH (human) (UniProt P24723)
MET (human) = MET (human) (UniProt P08581)
DYRK1B (human) = DYRK1B (human) (UniProt Q9Y463)
RIPK2 (human) = RIPK2 (human) (UniProt O43353)
STK16 (human) = STK16 (human) (UniProt O75716)
IGF1R (human) = IGF1R (human) (UniProt P08069)
AURKA (human) = AURKA (human) (UniProt O14965)
PAK6 (human) = PAK6 (human) (UniProt Q9NQU5)
PDPK1 (human) = PDPK1 (human) (UniProt O15530)
AKT1 (human) = AKT1 (human) (UniProt P31749)
MAPK9 (human) = MAPK9 (human) (UniProt P45984)
PRKCB2 (human) = PRKCB2 (human) (UniProt P05771)
ABL2 (human) = ABL2 (human) (UniProt P42684)
CAMKK2 (human) = CAMKK2 (human) (UniProt Q96RR4)
CDK3 CCNE1 (human) = CDK3 CCNE1 (human) (UniProt Q00526+P24864)
MARK1 (human) = MARK1 (human) (UniProt Q9P0L2)

LYN (human), sequence (P07948 whole entry, looked up): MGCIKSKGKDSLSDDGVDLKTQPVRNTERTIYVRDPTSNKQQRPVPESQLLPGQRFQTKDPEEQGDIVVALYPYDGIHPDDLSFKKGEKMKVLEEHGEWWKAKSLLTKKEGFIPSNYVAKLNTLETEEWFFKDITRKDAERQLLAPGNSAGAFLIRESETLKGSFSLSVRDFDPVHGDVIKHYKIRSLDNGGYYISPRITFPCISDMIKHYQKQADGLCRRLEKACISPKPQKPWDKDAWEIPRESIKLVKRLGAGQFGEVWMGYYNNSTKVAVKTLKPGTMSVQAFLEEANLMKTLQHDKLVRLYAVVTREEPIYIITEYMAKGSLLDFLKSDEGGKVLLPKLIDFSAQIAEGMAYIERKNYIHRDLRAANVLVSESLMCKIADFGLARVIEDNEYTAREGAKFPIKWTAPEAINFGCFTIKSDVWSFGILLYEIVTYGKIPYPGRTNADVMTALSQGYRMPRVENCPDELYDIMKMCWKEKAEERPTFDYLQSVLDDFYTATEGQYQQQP
NTRK1 (human), sequence (P04629 whole entry, looked up): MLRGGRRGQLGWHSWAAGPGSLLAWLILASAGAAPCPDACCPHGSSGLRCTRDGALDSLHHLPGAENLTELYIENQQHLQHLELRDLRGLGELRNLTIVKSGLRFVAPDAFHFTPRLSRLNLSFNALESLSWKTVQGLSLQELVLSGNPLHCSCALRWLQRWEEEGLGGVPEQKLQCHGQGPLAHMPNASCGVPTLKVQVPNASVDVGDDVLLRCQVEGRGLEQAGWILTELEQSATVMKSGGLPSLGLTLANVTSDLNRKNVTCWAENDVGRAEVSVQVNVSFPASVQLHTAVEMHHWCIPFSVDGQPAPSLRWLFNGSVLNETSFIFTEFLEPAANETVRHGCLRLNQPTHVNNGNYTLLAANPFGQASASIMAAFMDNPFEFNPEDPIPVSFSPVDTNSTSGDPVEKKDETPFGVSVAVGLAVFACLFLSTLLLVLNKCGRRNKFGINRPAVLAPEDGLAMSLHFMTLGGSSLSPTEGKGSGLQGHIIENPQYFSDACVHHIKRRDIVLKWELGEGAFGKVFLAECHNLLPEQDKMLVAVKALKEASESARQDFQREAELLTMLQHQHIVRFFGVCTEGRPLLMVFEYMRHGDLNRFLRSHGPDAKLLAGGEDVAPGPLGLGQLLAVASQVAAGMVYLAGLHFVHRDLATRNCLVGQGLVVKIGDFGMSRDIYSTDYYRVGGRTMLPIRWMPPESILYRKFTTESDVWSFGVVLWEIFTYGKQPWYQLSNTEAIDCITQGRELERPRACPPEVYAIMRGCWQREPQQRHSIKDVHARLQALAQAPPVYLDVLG
IKBKB (human), sequence (O14920 whole entry, looked up): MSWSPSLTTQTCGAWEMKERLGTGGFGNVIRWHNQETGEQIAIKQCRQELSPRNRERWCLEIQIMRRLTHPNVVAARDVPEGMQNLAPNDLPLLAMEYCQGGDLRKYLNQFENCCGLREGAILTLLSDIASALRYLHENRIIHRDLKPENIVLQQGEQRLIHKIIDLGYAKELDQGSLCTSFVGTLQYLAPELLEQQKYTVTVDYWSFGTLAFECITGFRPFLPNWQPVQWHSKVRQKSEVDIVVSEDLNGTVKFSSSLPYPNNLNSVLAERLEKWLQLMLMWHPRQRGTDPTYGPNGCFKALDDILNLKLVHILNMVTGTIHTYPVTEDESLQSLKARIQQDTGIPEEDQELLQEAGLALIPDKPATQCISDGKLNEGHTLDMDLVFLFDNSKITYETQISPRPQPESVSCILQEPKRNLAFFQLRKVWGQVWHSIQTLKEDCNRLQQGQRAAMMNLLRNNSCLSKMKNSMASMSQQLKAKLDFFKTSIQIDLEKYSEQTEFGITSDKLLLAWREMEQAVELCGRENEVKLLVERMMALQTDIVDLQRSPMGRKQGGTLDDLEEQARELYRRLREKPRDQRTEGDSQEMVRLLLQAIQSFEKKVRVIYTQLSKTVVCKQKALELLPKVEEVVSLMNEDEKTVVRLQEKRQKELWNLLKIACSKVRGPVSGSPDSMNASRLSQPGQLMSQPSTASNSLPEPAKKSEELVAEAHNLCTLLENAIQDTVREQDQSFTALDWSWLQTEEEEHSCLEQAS
DYRK1B (human), sequence (Q9Y463 whole entry, looked up): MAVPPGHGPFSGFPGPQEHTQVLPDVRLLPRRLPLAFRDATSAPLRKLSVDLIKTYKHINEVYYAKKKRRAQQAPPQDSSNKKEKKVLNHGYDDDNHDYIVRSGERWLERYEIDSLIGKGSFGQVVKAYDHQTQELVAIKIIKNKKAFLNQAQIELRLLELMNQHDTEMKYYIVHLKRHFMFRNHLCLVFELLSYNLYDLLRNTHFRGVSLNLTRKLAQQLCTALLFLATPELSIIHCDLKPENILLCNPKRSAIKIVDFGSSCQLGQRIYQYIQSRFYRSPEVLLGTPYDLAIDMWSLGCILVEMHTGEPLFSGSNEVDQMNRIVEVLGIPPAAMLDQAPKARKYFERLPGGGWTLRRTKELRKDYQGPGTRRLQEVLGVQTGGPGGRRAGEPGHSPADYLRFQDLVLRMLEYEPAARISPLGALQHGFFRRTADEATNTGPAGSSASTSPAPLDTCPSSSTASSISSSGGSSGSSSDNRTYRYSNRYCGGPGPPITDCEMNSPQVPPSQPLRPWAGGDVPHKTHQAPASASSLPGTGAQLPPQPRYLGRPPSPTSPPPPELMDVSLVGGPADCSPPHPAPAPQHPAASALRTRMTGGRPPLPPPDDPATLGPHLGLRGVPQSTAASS
IGF1R (human), sequence (P08069 whole entry, looked up): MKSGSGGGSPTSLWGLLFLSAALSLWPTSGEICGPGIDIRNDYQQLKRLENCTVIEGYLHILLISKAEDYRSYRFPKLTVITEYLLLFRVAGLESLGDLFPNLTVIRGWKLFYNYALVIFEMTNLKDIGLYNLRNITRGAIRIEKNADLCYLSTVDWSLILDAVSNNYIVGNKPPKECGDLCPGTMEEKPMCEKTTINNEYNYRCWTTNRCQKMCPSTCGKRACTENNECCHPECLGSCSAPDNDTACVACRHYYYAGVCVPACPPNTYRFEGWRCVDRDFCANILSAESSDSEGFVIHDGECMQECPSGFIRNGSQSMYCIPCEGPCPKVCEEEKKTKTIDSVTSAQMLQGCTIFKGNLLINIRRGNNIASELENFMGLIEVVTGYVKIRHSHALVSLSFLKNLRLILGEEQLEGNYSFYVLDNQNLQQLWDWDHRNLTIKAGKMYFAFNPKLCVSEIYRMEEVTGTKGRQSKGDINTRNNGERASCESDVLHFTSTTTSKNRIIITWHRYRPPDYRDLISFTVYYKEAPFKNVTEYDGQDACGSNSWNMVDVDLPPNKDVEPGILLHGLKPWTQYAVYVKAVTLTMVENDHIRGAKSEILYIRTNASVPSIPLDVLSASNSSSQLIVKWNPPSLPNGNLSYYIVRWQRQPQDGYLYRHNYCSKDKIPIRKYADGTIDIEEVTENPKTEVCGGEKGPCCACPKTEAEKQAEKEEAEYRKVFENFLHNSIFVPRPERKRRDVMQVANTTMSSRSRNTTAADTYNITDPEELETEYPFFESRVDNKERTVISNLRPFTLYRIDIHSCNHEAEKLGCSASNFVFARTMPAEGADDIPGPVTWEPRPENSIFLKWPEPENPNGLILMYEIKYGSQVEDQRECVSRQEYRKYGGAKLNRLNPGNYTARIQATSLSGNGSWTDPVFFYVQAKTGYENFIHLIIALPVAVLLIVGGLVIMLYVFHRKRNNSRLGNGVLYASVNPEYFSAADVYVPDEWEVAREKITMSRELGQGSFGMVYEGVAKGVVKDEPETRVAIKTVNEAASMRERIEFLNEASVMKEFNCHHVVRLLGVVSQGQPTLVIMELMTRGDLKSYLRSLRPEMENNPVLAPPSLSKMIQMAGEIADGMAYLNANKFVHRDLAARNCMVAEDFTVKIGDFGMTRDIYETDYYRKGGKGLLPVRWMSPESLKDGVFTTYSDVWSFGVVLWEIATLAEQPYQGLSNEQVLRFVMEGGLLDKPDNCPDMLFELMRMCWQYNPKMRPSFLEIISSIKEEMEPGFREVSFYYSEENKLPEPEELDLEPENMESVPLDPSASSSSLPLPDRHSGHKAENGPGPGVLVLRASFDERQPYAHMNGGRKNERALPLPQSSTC
PAK2 (human), sequence (Q13177 whole entry, looked up): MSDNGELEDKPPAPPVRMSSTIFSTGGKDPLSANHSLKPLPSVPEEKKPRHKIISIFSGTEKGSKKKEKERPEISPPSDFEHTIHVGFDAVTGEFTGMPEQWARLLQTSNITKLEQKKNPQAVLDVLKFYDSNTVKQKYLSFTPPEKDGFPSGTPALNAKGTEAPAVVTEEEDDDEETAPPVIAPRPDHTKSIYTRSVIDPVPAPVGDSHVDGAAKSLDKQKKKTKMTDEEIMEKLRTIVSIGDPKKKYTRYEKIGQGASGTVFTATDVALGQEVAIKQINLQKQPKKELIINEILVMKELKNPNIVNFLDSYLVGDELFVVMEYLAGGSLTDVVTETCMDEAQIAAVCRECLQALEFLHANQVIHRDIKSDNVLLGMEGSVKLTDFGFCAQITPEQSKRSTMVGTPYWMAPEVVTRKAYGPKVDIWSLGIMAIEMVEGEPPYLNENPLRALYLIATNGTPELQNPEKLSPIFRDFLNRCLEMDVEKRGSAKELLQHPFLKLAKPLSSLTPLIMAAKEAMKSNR
AKT1 (human), sequence (P31749 whole entry, looked up): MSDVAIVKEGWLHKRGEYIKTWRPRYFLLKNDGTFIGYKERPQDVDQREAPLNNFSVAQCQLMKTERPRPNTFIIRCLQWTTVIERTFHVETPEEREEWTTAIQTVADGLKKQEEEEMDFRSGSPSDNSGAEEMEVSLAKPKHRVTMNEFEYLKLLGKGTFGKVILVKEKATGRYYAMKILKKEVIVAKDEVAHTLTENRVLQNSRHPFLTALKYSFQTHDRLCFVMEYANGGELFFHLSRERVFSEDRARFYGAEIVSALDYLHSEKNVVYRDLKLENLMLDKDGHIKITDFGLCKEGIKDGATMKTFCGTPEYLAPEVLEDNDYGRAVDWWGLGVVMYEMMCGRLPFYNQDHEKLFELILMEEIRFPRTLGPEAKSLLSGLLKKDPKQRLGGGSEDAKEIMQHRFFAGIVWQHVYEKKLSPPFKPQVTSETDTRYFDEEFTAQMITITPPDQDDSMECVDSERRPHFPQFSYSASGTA

`N#C/C(=C(/N)Sc1ccc(N)cc1)c1ccccc1C(F)(F)F` was tested, and the residual activity [1] was 102%, the residual activity (RPS6KB1 (human)) was 102% and the residual activity (ZAP70 (human)) was 102%. It also gave a residual activity (PRKCA (human)) of 100%, a residual activity (NEK1 (human)) of 99% and a residual activity (NTRK1 (human)) of 109%. The residual activity (MAPKAPK5 (human)) was 89.9%, the residual activity (SRPK3 (human)) was 96.3% and the residual activity (OXSR1 (human)) was 101%. For the same molecule, the residual activity (STK38 (human)) was 93.1%, the residual activity (PAK4 (human)) was 99.4% and the residual activity (IKBKB (human)) was 100%. For the same molecule, the residual activity (CAMKK1 (human)) was 117%, the residual activity (CAMK4 (human)) was 110% and the residual activity (PTK6 (human)) was 97.6%. The residual activity (RPS6KA3 KD1 KD2 (human)) was 100%, the residual activity (ULK3 (human)) was 106% and the residual activity (BRSK2 (human)) was 102%. The residual activity (MAP3K14 (human)) was 111%, the residual activity (CDK1 CCNA2 (human)) was 91.2% and the residual activity (LYN (human)) was 107% and 98.5%. For the same molecule, the residual activity (PAK2 (human)) was 98%, the residual activity (SYK (human)) was 99.3% and the residual activity (JAK3 JH1 JH2 (human)) was 101%. For the same molecule, the residual activity (TXK (human)) was 98.7%, the residual activity (DCLK2 (human)) was 99.1% and the residual activity (PRKCH (human)) was 96.4%. For the same molecule, the residual activity (MET (human)) was 77.2%, the residual activity (DYRK1B (human)) was 99.6% and the residual activity (RIPK2 (human)) was 91%. For the same molecule, the residual activity (STK16 (human)) was 98.4%, the residual activity (IGF1R (human)) was 97.4% and the residual activity (AURKA (human)) was 103%. It also gave a residual activity (PAK6 (human)) of 107%, a residual activity (PDPK1 (human)) of 103% and a residual activity (AKT1 (human)) of 101%. It also gave a residual activity (MAPK9 (human)) of 110%, a residual activity (PRKCB2 (human)) of 103% and a residual activity (ABL2 (human)) of 101%. For the same molecule, the residual activity (CAMKK2 (human)) was 85.5%, the residual activity (CDK3 CCNE1 (human)) was 105% and the residual activity (MARK1 (human)) was 99.9%.
`O=C1Nc2ccc(Cl)cc2/C1=C/c1cc(Cl)c(O)c(Cl)c1` gave a residual activity [1] of 26.9%, a residual activity (RPS6KB1 (human)) of 91% and a residual activity (ZAP70 (human)) of 95%. It also gave a residual activity (PRKCA (human)) of 105%, a residual activity (NEK1 (human)) of 81.5% and a residual activity (NTRK1 (human)) of 87.4%. It also gave a residual activity (MAPKAPK5 (human)) of 92.4%, a residual activity (SRPK3 (human)) of 88.3% and a residual activity (OXSR1 (human)) of 91.6%. For the same molecule, the residual activity (STK38 (human)) was 85.4%, the residual activity (PAK4 (human)) was 88.7% and the residual activity (IKBKB (human)) was 93.6%. It also gave a residual activity (CAMKK1 (human)) of 52.5%, a residual activity (CAMK4 (human)) of 96.8% and a residual activity (PTK6 (human)) of 73.8%. For the same molecule, the residual activity (RPS6KA3 KD1 KD2 (human)) was 96%, the residual activity (ULK3 (human)) was 92.2% and the residual activity (BRSK2 (human)) was 77.2%. The residual activity (MAP3K14 (human)) was 111%, the residual activity (CDK1 CCNA2 (human)) was 91.9% and the residual activity (LYN (human)) was 81.6% and 87.5%. The residual activity (PAK2 (human)) was 96.8%, the residual activity (SYK (human)) was 93.3% and the residual activity (JAK3 JH1 JH2 (human)) was 100%. For the same molecule, the residual activity (TXK (human)) was 86.6%, the residual activity (DCLK2 (human)) was 98% and the residual activity (PRKCH (human)) was 90.8%. For the same molecule, the residual activity (MET (human)) was 96.4%, the residual activity (DYRK1B (human)) was 90.9% and the residual activity (RIPK2 (human)) was 50.2%. The residual activity (STK16 (human)) was 90.2%, the residual activity (IGF1R (human)) was 98.3% and the residual activity (AURKA (human)) was 64.2%. The residual activity (PAK6 (human)) was 97%, the residual activity (PDPK1 (human)) was 103% and the residual activity (AKT1 (human)) was 97.9%. For the same molecule, the residual activity (MAPK9 (human)) was 100%, the residual activity (PRKCB2 (human)) was 97.5% and the residual activity (ABL2 (human)) was 80.4%. It also gave a residual activity (CAMKK2 (human)) of 51.5%, a residual activity (CDK3 CCNE1 (human)) of 85.4% and a residual activity (MARK1 (human)) of 89.5%.
